PMC10046369, “Low-Affinity/High-Selectivity Dopamine Transport Inhibition Sufficient to Rescue Cognitive Functions in the Aging Rat” (Biomolecules, 2023)

Legend:
Assay in all cases: biochemical
Parameters in all cases: KINOMEscan competition binding panel, per cent of control
Details in all cases: read-out: %Ctrl @ 2800nM
[1] = target: T1, ABL1(F317I)-phosphorylated (Homo sapiens, UniProt P00519, F317I)
T1 construct: phosphorylated
In short: (§1)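 Values are expressed as percent of control, calculated as ((test − positive control)/(negative control − positive control)) × 100, so lower numbers mean stronger hits. Binding was measured by KINOMEscan competition assay in a 450-kinase human panel including disease mutants, using the contractor's validated protocol.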

[2] = target: T2, ABL1(H396P)-nonphosphorylated (Homo sapiens, UniProt P00519, H396P)
T2 construct: nonphosphorylated
In short: as §1

ABL1-nonphosphorylated = target: T3, ABL1-nonphosphorylated (Homo sapiens, UniProt P00519)
T3 construct: nonphosphorylated
In short: as §1

BMPR2 = BMPR2 (Homo sapiens, UniProt Q13873)
In short: as §1

BRSK2 = BRSK2 (Homo sapiens, UniProt Q8IWQ3)
In short: as §1

CDC2L1 = target: T4, CDC2L1 (Homo sapiens, UniProt P21127)
T4 construct: gene CDK11B
In short: as §1

CDK7 = CDK7 (Homo sapiens, UniProt P50613)
Chain of CDK7 (P50613 whole entry): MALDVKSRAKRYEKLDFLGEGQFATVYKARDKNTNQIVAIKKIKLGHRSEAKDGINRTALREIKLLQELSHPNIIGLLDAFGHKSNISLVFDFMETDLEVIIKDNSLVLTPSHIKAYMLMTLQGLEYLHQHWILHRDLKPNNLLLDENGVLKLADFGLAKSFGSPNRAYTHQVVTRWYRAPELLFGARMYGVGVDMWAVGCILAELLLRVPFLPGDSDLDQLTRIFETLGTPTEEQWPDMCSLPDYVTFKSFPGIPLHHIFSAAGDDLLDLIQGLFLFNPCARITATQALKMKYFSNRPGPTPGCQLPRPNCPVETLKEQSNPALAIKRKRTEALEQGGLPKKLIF
In short: as §1

CDKL5 = CDKL5 (Homo sapiens, UniProt O76039)
In short: as §1

CLK3 = CLK3 (Homo sapiens, UniProt P49761)
Chain of CLK3 (P49761 whole entry): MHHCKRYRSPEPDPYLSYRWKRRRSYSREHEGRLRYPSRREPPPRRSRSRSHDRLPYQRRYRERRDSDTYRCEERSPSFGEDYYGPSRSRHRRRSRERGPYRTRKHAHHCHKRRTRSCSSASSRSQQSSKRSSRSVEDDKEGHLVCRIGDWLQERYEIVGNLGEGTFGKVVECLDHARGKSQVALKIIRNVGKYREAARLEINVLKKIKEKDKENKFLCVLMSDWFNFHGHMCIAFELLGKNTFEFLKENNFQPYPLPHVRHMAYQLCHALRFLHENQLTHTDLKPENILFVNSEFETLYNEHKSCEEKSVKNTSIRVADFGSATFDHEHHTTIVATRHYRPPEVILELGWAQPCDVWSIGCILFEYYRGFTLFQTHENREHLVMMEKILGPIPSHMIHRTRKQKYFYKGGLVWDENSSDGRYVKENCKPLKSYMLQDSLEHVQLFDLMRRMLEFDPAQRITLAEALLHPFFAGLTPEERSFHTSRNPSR
In short: as §1

EGFR(E746-A750del) = EGFR(E746-A750del) (Homo sapiens, UniProt P00533, DEL746-750)
Chain of EGFR(E746-A750del) (P00533 with tags, fused parts or gaps DEL746-750): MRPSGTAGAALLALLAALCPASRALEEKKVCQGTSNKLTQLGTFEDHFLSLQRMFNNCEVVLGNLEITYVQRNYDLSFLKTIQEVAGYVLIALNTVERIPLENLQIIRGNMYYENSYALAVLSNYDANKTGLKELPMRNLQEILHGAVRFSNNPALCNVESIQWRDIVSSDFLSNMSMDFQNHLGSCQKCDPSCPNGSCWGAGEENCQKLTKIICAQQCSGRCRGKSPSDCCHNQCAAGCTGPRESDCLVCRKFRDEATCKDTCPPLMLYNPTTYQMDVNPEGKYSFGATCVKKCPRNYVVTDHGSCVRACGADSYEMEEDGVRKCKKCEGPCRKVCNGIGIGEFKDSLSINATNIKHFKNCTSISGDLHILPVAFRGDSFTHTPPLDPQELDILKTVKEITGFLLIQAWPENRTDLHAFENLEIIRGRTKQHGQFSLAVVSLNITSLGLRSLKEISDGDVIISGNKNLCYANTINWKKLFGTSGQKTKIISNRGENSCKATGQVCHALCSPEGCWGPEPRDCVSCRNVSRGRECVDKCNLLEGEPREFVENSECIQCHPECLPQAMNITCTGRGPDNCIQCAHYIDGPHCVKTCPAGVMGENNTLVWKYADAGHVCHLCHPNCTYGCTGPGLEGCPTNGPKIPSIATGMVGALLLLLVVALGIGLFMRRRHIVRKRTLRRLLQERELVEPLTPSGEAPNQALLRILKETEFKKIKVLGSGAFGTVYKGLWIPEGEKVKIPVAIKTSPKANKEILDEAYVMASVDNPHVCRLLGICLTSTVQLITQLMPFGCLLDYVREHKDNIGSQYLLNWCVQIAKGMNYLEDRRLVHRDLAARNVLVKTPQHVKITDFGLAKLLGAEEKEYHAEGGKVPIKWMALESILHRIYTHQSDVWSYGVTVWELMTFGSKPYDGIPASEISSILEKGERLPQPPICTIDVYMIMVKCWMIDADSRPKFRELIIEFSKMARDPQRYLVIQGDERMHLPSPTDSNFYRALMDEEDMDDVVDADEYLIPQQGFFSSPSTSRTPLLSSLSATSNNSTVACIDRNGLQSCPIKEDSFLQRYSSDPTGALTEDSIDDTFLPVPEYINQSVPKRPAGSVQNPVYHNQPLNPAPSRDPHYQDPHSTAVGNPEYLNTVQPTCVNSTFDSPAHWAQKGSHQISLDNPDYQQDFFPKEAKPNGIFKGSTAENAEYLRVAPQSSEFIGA
In short: as §1

EGFR(L858R,T790M) = EGFR(L858R,T790M) (Homo sapiens, UniProt P00533, L858R/T790M)
In short: as §1

EPHA8 = EPHA8 (Homo sapiens, UniProt P29322)
Chain of EPHA8 (P29322 whole entry): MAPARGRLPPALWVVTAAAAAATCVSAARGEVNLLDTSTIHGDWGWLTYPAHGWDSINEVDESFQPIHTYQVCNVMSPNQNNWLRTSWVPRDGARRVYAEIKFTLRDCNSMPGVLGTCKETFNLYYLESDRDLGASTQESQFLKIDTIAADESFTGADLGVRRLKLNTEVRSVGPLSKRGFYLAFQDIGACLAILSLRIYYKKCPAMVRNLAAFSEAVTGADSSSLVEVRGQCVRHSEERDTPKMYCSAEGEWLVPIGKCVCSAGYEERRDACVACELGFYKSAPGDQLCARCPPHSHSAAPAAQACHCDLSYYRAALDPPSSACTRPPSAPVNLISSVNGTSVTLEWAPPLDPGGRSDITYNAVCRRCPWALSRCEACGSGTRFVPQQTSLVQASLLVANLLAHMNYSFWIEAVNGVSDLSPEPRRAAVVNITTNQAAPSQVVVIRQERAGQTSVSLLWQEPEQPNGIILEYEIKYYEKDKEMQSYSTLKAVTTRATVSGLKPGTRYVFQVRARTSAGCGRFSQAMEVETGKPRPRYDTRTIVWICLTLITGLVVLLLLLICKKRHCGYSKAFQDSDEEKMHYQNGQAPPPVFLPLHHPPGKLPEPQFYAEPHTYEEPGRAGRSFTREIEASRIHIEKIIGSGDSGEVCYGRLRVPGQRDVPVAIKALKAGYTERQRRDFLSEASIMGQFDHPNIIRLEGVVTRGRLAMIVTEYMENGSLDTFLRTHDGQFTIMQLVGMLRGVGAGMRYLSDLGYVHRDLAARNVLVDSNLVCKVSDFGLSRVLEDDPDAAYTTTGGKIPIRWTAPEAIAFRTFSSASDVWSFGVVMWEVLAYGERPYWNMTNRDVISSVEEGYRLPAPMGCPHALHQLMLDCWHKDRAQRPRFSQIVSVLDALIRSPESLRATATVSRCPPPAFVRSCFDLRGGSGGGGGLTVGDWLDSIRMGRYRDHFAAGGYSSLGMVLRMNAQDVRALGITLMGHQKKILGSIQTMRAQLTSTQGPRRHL
In short: as §1

EPHB2 = EPHB2 (Homo sapiens, UniProt P29323)
In short: as §1

JNK3 = target: T5, JNK3 (Homo sapiens, UniProt P53779)
T5 construct: gene MAPK10
T5 sequence (P53779 whole entry): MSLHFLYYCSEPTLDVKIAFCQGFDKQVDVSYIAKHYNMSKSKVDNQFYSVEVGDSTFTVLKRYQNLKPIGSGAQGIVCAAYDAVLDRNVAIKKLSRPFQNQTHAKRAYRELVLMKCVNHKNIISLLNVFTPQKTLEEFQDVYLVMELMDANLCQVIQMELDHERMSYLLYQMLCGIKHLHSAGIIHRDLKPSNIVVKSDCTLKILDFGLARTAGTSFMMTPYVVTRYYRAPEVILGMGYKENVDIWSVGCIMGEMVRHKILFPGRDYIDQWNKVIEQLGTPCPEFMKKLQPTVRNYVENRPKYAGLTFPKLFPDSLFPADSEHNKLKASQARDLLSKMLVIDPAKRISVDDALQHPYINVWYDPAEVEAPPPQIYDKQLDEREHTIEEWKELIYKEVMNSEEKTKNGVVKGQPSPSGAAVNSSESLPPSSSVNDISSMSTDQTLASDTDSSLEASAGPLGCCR
In short: as §1

KIT(V559D) = KIT(V559D) (Homo sapiens, UniProt P10721, V559D)
In short: as §1

LZK = target: T6, LZK (Homo sapiens, UniProt O43283)
T6 construct: gene MAP3K13
In short: as §1

MERTK = MERTK (Homo sapiens, UniProt Q12866)
In short: as §1

MYLK2 = MYLK2 (Homo sapiens, UniProt Q9H1R3)
In short: as §1

PIM1 = PIM1 (Homo sapiens, UniProt P11309)
Chain of PIM1 (P11309 whole entry): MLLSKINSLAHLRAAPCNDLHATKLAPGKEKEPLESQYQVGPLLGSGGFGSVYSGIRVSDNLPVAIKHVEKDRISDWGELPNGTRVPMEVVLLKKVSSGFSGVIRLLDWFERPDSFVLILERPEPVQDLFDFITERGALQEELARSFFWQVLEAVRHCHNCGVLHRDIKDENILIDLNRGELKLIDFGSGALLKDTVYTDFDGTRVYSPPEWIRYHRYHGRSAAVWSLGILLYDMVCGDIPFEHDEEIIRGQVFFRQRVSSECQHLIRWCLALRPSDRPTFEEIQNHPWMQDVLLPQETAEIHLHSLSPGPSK
In short: as §1

PKN1 = PKN1 (Homo sapiens, UniProt Q16512)
In short: as §1

PRKCH = PRKCH (Homo sapiens, UniProt P24723)
In short: as §1

[3] = target: T7, RSK2(Kin.Dom.1-N-terminal) (Homo sapiens, UniProt P51812)
T7 construct: gene RPS6KA3; Kin.Dom.1-N-terminal
T7 sequence (P51812 whole entry): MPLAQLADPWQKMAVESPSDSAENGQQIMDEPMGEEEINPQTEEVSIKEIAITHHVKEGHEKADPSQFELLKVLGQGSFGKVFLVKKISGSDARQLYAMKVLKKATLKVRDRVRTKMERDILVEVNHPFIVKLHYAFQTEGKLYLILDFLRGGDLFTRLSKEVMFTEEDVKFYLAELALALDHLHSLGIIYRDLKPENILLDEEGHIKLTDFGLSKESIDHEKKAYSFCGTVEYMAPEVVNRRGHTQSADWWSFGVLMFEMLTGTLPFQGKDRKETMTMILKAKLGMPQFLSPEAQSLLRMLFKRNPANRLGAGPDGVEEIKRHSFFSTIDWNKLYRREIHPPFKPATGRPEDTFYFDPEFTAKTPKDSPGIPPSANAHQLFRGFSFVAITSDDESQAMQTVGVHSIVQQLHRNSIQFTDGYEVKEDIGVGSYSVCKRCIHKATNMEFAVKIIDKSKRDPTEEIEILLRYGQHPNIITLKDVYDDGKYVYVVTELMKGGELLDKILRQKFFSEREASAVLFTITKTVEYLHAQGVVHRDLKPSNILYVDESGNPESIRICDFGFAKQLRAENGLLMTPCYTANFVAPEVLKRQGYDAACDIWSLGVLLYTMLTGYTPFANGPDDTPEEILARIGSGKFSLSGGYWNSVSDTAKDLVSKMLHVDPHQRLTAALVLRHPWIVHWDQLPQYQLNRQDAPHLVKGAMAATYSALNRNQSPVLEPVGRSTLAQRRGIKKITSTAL
In short: as §1

SYK = SYK (Homo sapiens, UniProt P43405)
In short: as §1

TESK1 = TESK1 (Homo sapiens, UniProt Q15569)
In short: as §1

TLK1 = TLK1 (Homo sapiens, UniProt Q9UKI8)
In short: as §1

TNK2 = TNK2 (Homo sapiens, UniProt Q07912)
In short: as §1

`[O-][S@@+](Cc1cncs1)C(c1ccccc1)c1ccccc1` [S-CE-123, (S)-5-((Benzhydrylsulfinyl)Methyl)Thiazole] gave a remaining binding at 2.8 µM [1] of 92%, a remaining binding at 2.8 µM [2] of 86% and a remaining binding at 2.8 µM (ABL1-nonphosphorylated) of 93%. It also gave a remaining binding at 2.8 µM (BMPR2) of 100%, a remaining binding at 2.8 µM (BRSK2) of 100% and a remaining binding at 2.8 µM (CDC2L1) of 95%. It also gave a remaining binding at 2.8 µM (CDK7) of 70%, a remaining binding at 2.8 µM (CDKL5) of 97% and a remaining binding at 2.8 µM (CLK3) of 95%. It also gave a remaining binding at 2.8 µM (EGFR(E746-A750del)) of 93%, a remaining binding at 2.8 µM (EGFR(L858R,T790M)) of 99% and a remaining binding at 2.8 µM (EPHA8) of 100%. It also gave a remaining binding at 2.8 µM (EPHB2) of 89%, a remaining binding at 2.8 µM (JNK3) of 74% and a remaining binding at 2.8 µM (KIT(V559D)) of 97%. The remaining binding at 2.8 µM (LZK) was 94%, the remaining binding at 2.8 µM (MERTK) was 63% and the remaining binding at 2.8 µM (MYLK2) was 99%. It also gave a remaining binding at 2.8 µM (PIM1) of 100%, a remaining binding at 2.8 µM (PKN1) of 100% and a remaining binding at 2.8 µM (PRKCH) of 100%. It also gave a remaining binding at 2.8 µM [3] of 100%, a remaining binding at 2.8 µM (SYK) of 100% and a remaining binding at 2.8 µM (TESK1) of 96%. It also gave a remaining binding at 2.8 µM (TLK1) of 91% and a remaining binding at 2.8 µM (TNK2) of 100%.
